Data from paper PMC5458179, “Oxidative DNA double strand breaks and autophagy in the antitumor effect of sterically hindered platinum(II) complexes in NSCLCs” (Oncotarget, 2017).
Read-outs that look alike come from different tables or passages of the source.

Columns and labels:
[1] = Blood stability test with rat plasma (ICP-MS); assay type: in vitro ADME; conditions: 37°C, 10 μM (method: 50 μM)
Description: Thus, we investigated the stability of complex 3 in rat plasma via ICP-MS measurement. Fresh rat plasma was added with a DMSO solution of complex 3 (10 μM). After incubation for 0, 2, 4 and 8 h at 37°C, the Pt content in rat plasma was measured by ICP-MS. […] This interaction contributes to the promising stability of complex 3 in rat plasma.
At varying time points (0, 2, 4 and 8 h) at 37°C, a 300 μL aliquot was removed from the incubating blood. The ICP-MS measurement was served to confirm the blood stability of complex 3 in rat plasma.

[2] = tested on: NCI-H1299; assay: MTT cytotoxicity assay; assay type: cell-based, human
Description: (§1) The results reveal that the steric hindrance plays a significant role in the cytotoxicity of complex 3.
(§2) The effects of complex 3 on the viability of NSCLC cancer cells including A549 and NCI-H1299 were detected respectively via MTT assays at time points of 12, 24, 48 and 72 h (Figure 2A). The results shown that complex 3 could inhibit the viability of the NSCLC cells.
(§3) Human cancer cell lines HepG2, SGC-7901, HCT-116, A549, NCI-H1299 and MCF-7 as well as normal liver cell line L02 were purchased from the Cell Bank of Shanghai Institute of Cell Biology. Among them, MCF-7, HepG2 cells were cultured at 37 °C in 5% CO2 with DMEM supplemented with 10% fetal bovine serum (FBS) (Hyclone, Lifescience, USA) and 1% penicillin/streptomycin (Beyotime, Nantong, China), while HCT-116, SGC-7901, A549, NCI-H1299 and L02 cells were cultured at 37 °C in 5% CO2 with RPMI-1640 supplemented with 10% FBS and 1% penicillin/streptomycin. Cells were passed every 2 days and restarted from frozen stocks upon reaching pass number 20.
(§4) In vitro cytotoxicity of the platinum compounds against human hepatocellular carcinoma (HepG-2), gastric carcinoma (SGC-7901), non-small-cell lung cancer (A549), and colorectal cancer (HCT-116) cell lines were measured by the MTT assays. Briefly, the cells were seeded in 96-well cultured plates at a density of 5000 cells/well. After overnight incubation (16 h), the cells were treated with the platinum complexes. After 48 h of incubation, 10 μL of a freshly diluted 3-(4,5-dimethyl-2-thiazolyl)-2,5-diphenyl-2H-tetrazolium bromide (MTT) solution (5 mg/mL) were added to each well and the plates were incubated at 37 °C in a humidified 5% CO2 atmosphere for 4 h. At the end of the incubation period the medium was removed and the formazan product was dissolved in 150 μL of DMSO. The cell viability was evaluated by measurement of the absorbance at 490 nm, using an Absorbance Reader (BioRad). IC50 values (compound concentration that produces 50% of cell growth inhibition) were calculated from curves constructed by plotting cell survival inhibitory rate (%) versus drug concentration logarithm. All experiments were repeated in three times. The reading values were converted to the percentage of control (% cell survival). Cytotoxic effects were expressed as IC50 values.

[3] = tested on: A549; assay: MTT cytotoxicity assay; assay type: cell-based, human; conditions: 48 h drug exposure
Description: as §1, §2, §3, §4

[4] = tested on: pET28a plasmid DNA; assay: Agarose gel electrophoresis of plasmid DNA; conditions: 0, 20, 80, 320, 640 μM
Description: The tested complexes were incubated with DNA at different concentrations.
Appropriate dilutions of tested complexes were made, and the required volumes of solutions were added to achieve a set of concentrations in the range of 0–100 mm; pET22b DNA (5 mL, 0.20 mg) was added to each tube, and the mixtures of platinum complexes and pET22b plasmid DNA were then incubated at 37°C for 6 or 24 h. Afterward, the agarose gel (made up to 1% w/v) containing ethidium bromide was prepared with TA buffer (50 mm Tris-acetate, pH 7.5). The mixtures with loading buffer (1 mL) underwent electrophores is in agarose gel in TA buffer at 100 V for 60 min. Bands were imaged using a Molecular Imager (Bio-Rad, USA) under UV light.

[5] = tested on: A549 cells; assay: Subcellular distribution of Pt (mitochondria, lysosomes, nucleus, residual); conditions: A549, 10 μM, 4 h, ICP-MS
Source text: (§5) One of the main factors to determine the mechanism of cytotoxic activity of a metal-based drug is its ability to cross the cell membrane and to accumulate in cancer cells. Therefore, with the aim of correlating cellular accumulation, we investigated the cellular uptake of the platinum complexes in A549, NCI-H1299 cancer cells and L02 normal cell. […] Moreover, the amount of Pt in the different subcellular compartments of cancer cells was quantified to fetch a more detailed picture of Pt-based complexes intracellular localization (Figure 1C).
(§6) The cells were seeded in 6-well plates overnight and then incubated with 10 μM drugs at 37°C in standard culture conditions. After 4 h, the cells were washed with PBS buffer (pH 7.4) for three times, and harvested by trypsinization. […] The organelles were then isolated via differential centrifugation. All cellular compartments (mitochondria, lysosomes and nucleus) were isolated from A549 and NCI-H1299 cancer cells for direct comparative purposes. The supernatant phases discarded during the isolation of nuclei, lysosomes and mitochondria procedures were collected and formed the “residual” fraction. An aliquot of crude lysate after homogenization, nuclear, mitochondrial (pellet lysed via freeze and thaw cycles followed by 20 min incubation in ultrasonic bath), lysosomal and residual fraction was each used for protein quantification using the Bradford method. The harvested cells were concentrated and digested by nitric acid for the ICP measurement. The cell numbers were counted before the digested. For the measurement of Pt concentration in cellular DNA in A549, NCI-H1299 cancer cells, DNA was isolated by applying Genomic DNA Mini Preparation Kit (Beyotime, China), and Pt content in DNA was analyzed by ICP.

[6] = tested on: NCI-H1299 cells; assay: as above; conditions: NCI-H1299, 10 μM, 4 h, ICP-MS
Source text: as §5, §6

[7] = tested on: A549 xenograft tumors; conditions: for tumor growth inhibition rate: 5 mg/kg i.v., complex 3 once every three days, oxaliplatin twice a week, tumor weight at end
Description: To evaluate the anti-tumor effect of complex 3 in vivo, an xenografts nude mice model of A549 cancer cells was performed. […] At the end of treatments, the tumor weight was measured to detect the antitumor activity of these measured groups. […] Because platinum-based drugs are well known for their toxic effects on the mean bodyweights of treated animals, the toxicity of complex 3 in the body weights of mice was assayed. […] The mice treated with the tested complex 3 were selected for histological analyses.
Thirty-five nude mice (BALB/c) with body weight range from 18–22 g, were supplied by Shanghai Laboratory Animal Center, China Academy of Sciences. Experimental protocols were in accordance with National Institutes of Health regulations and approved by the Institutional Animal Care and Use Committee. All animals were randomly divided into 5 groups. The A549 single-cell suspension in PBS (1×10^7 cells per mouse) was injected subcutaneously into the right oxter of nude mice. […] The control group was administered glucose. The tumor growth was monitored by measuring the perpendicular diameter of the tumor using calipers every two days and calculated according to the formula:
Tumor volume (mm^3) = 0.5 × length × width^2
Growth curves were plotted using the average tumor volume within each experimental group at the set time points. The whole group of mice was sacrificed after the last treatment, then tumor weight was evaluated as the antitumor activity of the corresponding groups, and the kidneys, livers and tumors were excised for immunohistochemistry analysis. The body weight and physical state of the mice were measured simultaneously as an indicator of systemic toxicity.

[8] = 48 h drug exposure, read-out: IC50 NCI-H1299

CC(C)C[NH+]1[C@@H]2CCCC[C@H]2[NH+](CC(C)C)[Pt-2]12[O]C(=O)CC(=O)[O]2 (stereo partly drawn) [Complex 3]
t1/2 in rat plasma (stability) [1]: 27.6 h | IC50 ([2]; 24 h, 2 to 128 μM, read-out: IC50 NCI-H1299 exposed for 24 h): 7.42 µM | IC50 [2, 8]: 20.9 ± 1.36 µM | IC50 [3]: 14.2 ± 1.22 µM | gel electrophoretic mobility of plasmid DNA [4]: a strong unwinding of the supercoiled DNA | share of intracellular Pt, nucleus [5]: 79% | share of intracellular Pt, nucleus [6]: 72% | tumor volumes ([7]; 5 mg/kg i.v. once every three days): significantly decreased | tumor growth inhibition rate [7]: 67.96% | expressions of LC3 in tumor tissues ([7]; immunoblotting): increased expressions of LC3 in tumor tissues | bodyweights of mice during treatment ([7]; mouse, in vivo): increase of bodyweights

O=C1[O][Pt]2([NH][C@@H]3CCCC[C@H]3[NH]2)[O]C1=O [Oxaliplatin, oxaliplatin, reference compound]
t1/2 in rat plasma (stability) [1]: ~ 13.1 h | IC50 [2, 8]: 62.4 ± 2.35 µM | IC50 [3]: 112 ± 11.3 µM | gel electrophoretic mobility of plasmid DNA [4]: a decrease in the rate of migration for closed circular DNA (Form I) | share of intracellular Pt, nucleus [5]: 63% | share of intracellular Pt, nucleus [6]: 57% | tumor growth inhibition rate [7]: 34.48%
